According to paper PMC6976587, “Conversion of Broad-Spectrum Antimicrobial Peptides into Species-Specific Antimicrobials Capable of Precisely Targeting Pathogenic Bacteria” (Scientific Reports, 2020):
Values after ≈ are worked out from the molar mass of the structure shown. Residues, ends and D or L forms follow the SMILES beside them.

Tests used:
E. faecalis ATCC 29212 = type: cell-based, Enterococcus faecalis; settings: ATCC 29212, 16 h
Method: (§1) The antimicrobial activities of the peptides were investigated against the following bacteria: E. faecalis ATCC 29212, S. epidermidis ATCC 12228, S. aureus ATCC 29213, E. coli ATCC 25922, S. typhimurium […] and S. Pullorum […]. The MICs of the peptides were determined using a modified standard microtiter dilution method as described previously[29],[38]. Briefly, the microbial strains were cultured in MHB at 37 °C to reach mid-log phase and then diluted to 0.5-1×10^6 CFU/ml. 50 μL volumes of bacteria suspension were incubated in sterile 96-well plates with 50 μl of 2-fold serially diluted peptides at different concentrations (0.25-128 μM). Cultures with or without bacterial cells was employed as positive and negative controls, respectively. […] Each measurement was reproduced at least four times using three replicates.

S. aureus ATCC 29213 = type: cell-based, Staphylococcus aureus; settings: ATCC 29213, 16 h
Method: as §1

[1] = test system: S. epidermidis ATCC 12228; type: cell-based, Staphylococcus epidermidis; settings: ATCC 12228, 16 h
Method: as §1

S. typhimurium C7731 = type: cell-based, Salmonella typhimurium; settings: C7731, 16 h
Method: as §1

S. Pullorum C7913 = type: cell-based, Salmonella Pullorum; settings: C7913, 16 h
Method: as §1

E. coli ATCC 25922 = type: cell-based, Escherichia coli; settings: ATCC 25922, 16 h
Method: as §1

[2] = test system: panel of microbes (Gram-negative and Gram-positive bacteria); type: cell-based; settings: 16 h
Method: as §1

| MIC (μM) Gram-positive E. faecalis 25922 (E. faecalis ATCC 29212) [µM] | MIC (μM) Gram-positive S. aureus 1005 (S. aureus ATCC 29213) [µM] | MIC (μM) Gram-positive S. epidermidis 7913 [1] [µM] | MIC (μM) Gram-negative S. typhimurium 29213 (S. typhimurium C7731) [µM] | MIC (μM) Gram-negative S. Pullorum 43300 (S. Pullorum C7913) [µM] | MIC (μM) Gram-negative E. coli 12228 (E. coli ATCC 25922) [µM] | MICs against the panel of microbes (range) [2] [µM] | Structure (SMILES) |
| --- | --- | --- | --- | --- | --- | --- | --- |
| >128 | >128 | >128 | 64 (≈ 133 µg/mL) | 16 (≈ 33.2 µg/mL) | 32 (≈ 66.4 µg/mL) |  | NCCCC[C@H](NC(=O)CNC(=O)[C@H](CC(N)=O)NC(=O)[C@H](CCC(=O)O)NC(=O)[C@H](Cc1c[nH]c2ccccc12)NC(=O)[C@H](CCCCN)NC(=O)[C@H](Cc1c[nH]c2ccccc12)NC(=O)[C@H](CCCCN)NC(=O)[C@@H](N)Cc1c[nH]c2ccccc12)C(=O)N[C@@H](Cc1c[nH]c2ccccc12)C(=O)N[C@@H](CCCCN)C(=O)N[C@@H](Cc1c[nH]c2ccccc12)C(=O)N[C@@H](CCC(N)=O)C(=O)N[C@@H](Cc1c[nH]c2ccccc12)C(=O)O [C3] (H-WKWKWENGKWKWQW-OH) |
| 64 (≈ 133 µg/mL) | 32 (≈ 66.4 µg/mL) | 32 (≈ 66.4 µg/mL) | 32 (≈ 66.4 µg/mL) | 8 (≈ 16.6 µg/mL) | 2 (≈ 4.15 µg/mL) |  | NCCCC[C@H](NC(=O)CNC(=O)[C@H](CC(N)=O)NC(=O)[C@H](CCC(=O)O)NC(=O)[C@H](Cc1c[nH]c2ccccc12)NC(=O)[C@H](CCCCN)NC(=O)[C@H](Cc1c[nH]c2ccccc12)NC(=O)[C@H](CCCCN)NC(=O)[C@@H](N)Cc1c[nH]c2ccccc12)C(=O)N[C@@H](Cc1c[nH]c2ccccc12)C(=O)N[C@@H](CCCCN)C(=O)N[C@@H](Cc1c[nH]c2ccccc12)C(=O)N[C@@H](CCCCN)C(=O)N[C@@H](Cc1c[nH]c2ccccc12)C(=O)O [C4] (H-WKWKWENGKWKWKW-OH) |
| 16 (≈ 48.3 µg/mL) | 8 (≈ 24.1 µg/mL) | 32 (≈ 96.6 µg/mL) | >128 | 8 (≈ 24.1 µg/mL) | 2 (≈ 6.04 µg/mL) |  | CC(C)C[C@H](NC(=O)CNC(=O)CNC(=O)CNC(=O)[C@H](Cc1c[nH]c2ccccc12)NC(=O)[C@H](CCCCN)NC(=O)[C@H](Cc1c[nH]c2ccccc12)NC(=O)[C@H](CCCCN)NC(=O)[C@H](Cc1c[nH]c2ccccc12)NC(=O)[C@H](CCCCN)NC(=O)CNC(=O)[C@H](CC(N)=O)NC(=O)[C@H](CCCCN)NC(=O)[C@H](Cc1c[nH]c2ccccc12)NC(=O)[C@H](CCCCN)NC(=O)[C@H](Cc1c[nH]c2ccccc12)NC(=O)[C@H](CCCCN)NC(=O)[C@@H](N)Cc1c[nH]c2ccccc12)C(=O)N[C@H](C(=O)N[C@H](C(=O)N[C@@H](CC(C)C)C(=O)N[C@H](C(=O)N[C@@H](Cc1ccccc1)C(=O)N[C@H](C(=O)O)C(C)C)C(C)C)[C@@H](C)O)C(C)C [C6-cCF10] (H-WKWKWKNGKWKWKWGGGLVTLVFV-OH) |
| 16 (≈ 33.2 µg/mL) | 4 (≈ 8.3 µg/mL) | 8 (≈ 16.6 µg/mL) | 8 (≈ 16.6 µg/mL) | 4 (≈ 8.3 µg/mL) | 2 (≈ 4.15 µg/mL) | 2 to 16 | NCCCC[C@H](NC(=O)CNC(=O)[C@H](CC(N)=O)NC(=O)[C@H](CCCCN)NC(=O)[C@H](Cc1c[nH]c2ccccc12)NC(=O)[C@H](CCCCN)NC(=O)[C@H](Cc1c[nH]c2ccccc12)NC(=O)[C@H](CCCCN)NC(=O)[C@@H](N)Cc1c[nH]c2ccccc12)C(=O)N[C@@H](Cc1c[nH]c2ccccc12)C(=O)N[C@@H](CCCCN)C(=O)N[C@@H](Cc1c[nH]c2ccccc12)C(=O)N[C@@H](CCCCN)C(=O)N[C@@H](Cc1c[nH]c2ccccc12)C(=O)O [C6] (H-WKWKWKNGKWKWKW-OH) |
| 4 (≈ 8.62 µg/mL) | 8 (≈ 17.2 µg/mL) | 16 (≈ 34.5 µg/mL) | 8 (≈ 17.2 µg/mL) | 8 (≈ 17.2 µg/mL) | 2 (≈ 4.31 µg/mL) |  | CC(C)C[C@H](NC(=O)[C@H](CCCNC(=N)N)NC(=O)CNC(=O)CNC(=O)[C@@H](N)CCCNC(=N)N)C(=O)N[C@H]1CSSC[C@@H](C(=O)N[C@H](C(=O)NCC(=O)N[C@@H](CCCNC(=N)N)C(N)=O)C(C)C)NC(=O)[C@H](C(C)C)NC(=O)[C@@H]2CSSC[C@H](NC(=O)[C@H](Cc3ccc(O)cc3)NC1=O)C(=O)N[C@@H](CCCNC(=N)N)C(=O)N[C@@H](CCCNC(=N)N)C(=O)N[C@@H](CCCNC(=N)N)C(=O)N[C@@H](Cc1ccccc1)C(=O)N2 [PG-1, reference compound] |
| >128 | >128 | >128 | >128 | >128 | >128 |  | CC(C)C[C@H](NC(=O)[C@@H](NC(=O)[C@@H](NC(=O)[C@@H](N)CC(C)C)C(C)C)[C@@H](C)O)C(=O)N[C@H](C(=O)N[C@@H](Cc1ccccc1)C(=O)N[C@H](C(=O)O)C(C)C)C(C)C [cCF10, reference compound] (H-LVTLVFV-OH) |
| >128 | >128 | >128 | >128 | >128 | >128 |  | CC(C)C[C@H](NC(=O)[C@@H](NC(=O)[C@@H](NC(=O)[C@@H](N)CC(C)C)C(C)C)[C@@H](C)O)C(=O)N[C@H](C(=O)N[C@@H](Cc1ccccc1)C(=O)N[C@H](C(=O)NCC(=O)NCC(=O)NCC(=O)N[C@@H](Cc1c[nH]c2ccccc12)C(=O)N[C@@H](CCCCN)C(=O)N[C@@H](Cc1c[nH]c2ccccc12)C(=O)N[C@@H](CCCCN)C(=O)N[C@@H](Cc1c[nH]c2ccccc12)C(=O)N[C@@H](CCC(=O)O)C(=O)N[C@@H](CC(N)=O)C(=O)NCC(=O)N[C@@H](CCCCN)C(=O)N[C@@H](Cc1c[nH]c2ccccc12)C(=O)N[C@@H](CCCCN)C(=O)N[C@@H](Cc1c[nH]c2ccccc12)C(=O)N[C@@H](CCC(N)=O)C(=O)N[C@@H](Cc1c[nH]c2ccccc12)C(=O)O)C(C)C)C(C)C [cCF10-C3] (H-LVTLVFVGGGWKWKWENGKWKWQW-OH) |
| 8 (≈ 24.2 µg/mL) | >128 | >128 | >128 | >128 | 64 (≈ 193 µg/mL) |  | CC(C)C[C@H](NC(=O)[C@@H](NC(=O)[C@@H](NC(=O)[C@@H](N)CC(C)C)C(C)C)[C@@H](C)O)C(=O)N[C@H](C(=O)N[C@@H](Cc1ccccc1)C(=O)N[C@H](C(=O)NCC(=O)NCC(=O)NCC(=O)N[C@@H](Cc1c[nH]c2ccccc12)C(=O)N[C@@H](CCCCN)C(=O)N[C@@H](Cc1c[nH]c2ccccc12)C(=O)N[C@@H](CCCCN)C(=O)N[C@@H](Cc1c[nH]c2ccccc12)C(=O)N[C@@H](CCC(=O)O)C(=O)N[C@@H](CC(N)=O)C(=O)NCC(=O)N[C@@H](CCCCN)C(=O)N[C@@H](Cc1c[nH]c2ccccc12)C(=O)N[C@@H](CCCCN)C(=O)N[C@@H](Cc1c[nH]c2ccccc12)C(=O)N[C@@H](CCCCN)C(=O)N[C@@H](Cc1c[nH]c2ccccc12)C(=O)O)C(C)C)C(C)C [cCF10-C4] (H-LVTLVFVGGGWKWKWENGKWKWKW-OH) |
| 4 (≈ 12.1 µg/mL) | 32 (≈ 96.6 µg/mL) | 32 (≈ 96.6 µg/mL) | >128 | 16 (≈ 48.3 µg/mL) | 4 (≈ 12.1 µg/mL) |  | CC(C)C[C@H](NC(=O)[C@@H](NC(=O)[C@@H](NC(=O)[C@@H](N)CC(C)C)C(C)C)[C@@H](C)O)C(=O)N[C@H](C(=O)N[C@@H](Cc1ccccc1)C(=O)N[C@H](C(=O)NCC(=O)NCC(=O)NCC(=O)N[C@@H](Cc1c[nH]c2ccccc12)C(=O)N[C@@H](CCCCN)C(=O)N[C@@H](Cc1c[nH]c2ccccc12)C(=O)N[C@@H](CCCCN)C(=O)N[C@@H](Cc1c[nH]c2ccccc12)C(=O)N[C@@H](CCCCN)C(=O)N[C@@H](CC(N)=O)C(=O)NCC(=O)N[C@@H](CCCCN)C(=O)N[C@@H](Cc1c[nH]c2ccccc12)C(=O)N[C@@H](CCCCN)C(=O)N[C@@H](Cc1c[nH]c2ccccc12)C(=O)N[C@@H](CCCCN)C(=O)N[C@@H](Cc1c[nH]c2ccccc12)C(=O)O)C(C)C)C(C)C [cCF10-C6] (H-LVTLVFVGGGWKWKWKNGKWKWKW-OH) |
| >128 | >128 | >128 | >128 | >128 | 32 (≈ 99 µg/mL) |  | CC[C@H](C)[C@H](NC(=O)[C@H](Cc1ccccc1)NC(=O)[C@H](CS)NC(=O)[C@@H](NC(=O)[C@H](CO)NC(=O)[C@@H](N)Cc1ccc(O)cc1)[C@@H](C)O)C(=O)N[C@@H](CCSC)C(=O)NCC(=O)NCC(=O)NCC(=O)N[C@@H](Cc1c[nH]c2ccccc12)C(=O)N[C@@H](CCCCN)C(=O)N[C@@H](Cc1c[nH]c2ccccc12)C(=O)N[C@@H](CCCCN)C(=O)N[C@@H](Cc1c[nH]c2ccccc12)C(=O)N[C@@H](CCC(=O)O)C(=O)N[C@@H](CC(N)=O)C(=O)NCC(=O)N[C@@H](CCCCN)C(=O)N[C@@H](Cc1c[nH]c2ccccc12)C(=O)N[C@@H](CCCCN)C(=O)N[C@@H](Cc1c[nH]c2ccccc12)C(=O)N[C@@H](CCCCN)C(=O)N[C@@H](Cc1c[nH]c2ccccc12)C(=O)O [random-C4] (H-YSTCFIMGGGWKWKWENGKWKWKW-OH) |
